Where two headings read alike, the source gives them in different places.
Legend:
HDAC10 = target: T1, HDAC10 (Homo sapiens, UniProt Q969S8)
T1 sequence (Q969S8 1-669): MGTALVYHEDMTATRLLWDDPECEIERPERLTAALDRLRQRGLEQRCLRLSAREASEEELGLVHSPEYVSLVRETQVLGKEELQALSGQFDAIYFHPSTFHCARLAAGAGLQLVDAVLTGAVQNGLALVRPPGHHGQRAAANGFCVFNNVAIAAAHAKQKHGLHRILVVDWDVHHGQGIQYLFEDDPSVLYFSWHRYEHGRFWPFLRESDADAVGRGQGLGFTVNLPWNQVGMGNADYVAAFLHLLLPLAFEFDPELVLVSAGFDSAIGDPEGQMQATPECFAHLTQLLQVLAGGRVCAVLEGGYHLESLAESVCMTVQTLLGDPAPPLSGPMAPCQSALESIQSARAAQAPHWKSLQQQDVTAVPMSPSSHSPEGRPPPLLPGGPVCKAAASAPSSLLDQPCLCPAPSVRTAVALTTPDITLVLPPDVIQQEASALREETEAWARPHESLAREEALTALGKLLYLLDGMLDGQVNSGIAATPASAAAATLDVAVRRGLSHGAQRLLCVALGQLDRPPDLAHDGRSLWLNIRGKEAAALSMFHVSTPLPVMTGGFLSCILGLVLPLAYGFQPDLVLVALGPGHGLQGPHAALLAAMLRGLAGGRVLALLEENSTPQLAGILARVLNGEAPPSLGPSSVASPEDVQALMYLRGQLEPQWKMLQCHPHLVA
Description: Test materials were stored at room temperature and stock solutions were prepared at 20 mg/ml in DMSO. Further dilutions were made in sterile distilled water immediately before being added to the reaction mixture containing a substrate, and the reaction was triggered by the addition of purified HDAC enzymes, Double distilled water was the negative control and trichostatin (1.5 ug/ml) was used as a positive control for validation of each study. The test procedure was as directed in the assay kits. The products of the reactions were measured by fluorometry at ex/em 350/450 nm using multi-well plate fluorometer Cytofluor 4000 (Applied Biosystem, Foster City, CA) or using SpectraMax i3× Multi-Mode Detection Platform from Molecular Devices (Sunnyvale, CA).
Statistical significance was assessed with a two-tail Student test. Deviations of ≤20% as compared to water control with p values below 0.05 were considered statistically significant.

[1] = system: EpiDermFT (Mattek full thickness) dermal substitutes; settings: versus control
Description: The experiments were performed using EpiDermFT (Mattek full thickness) dermal substitutes. Sequencing data was generated by Azenta Life Sciences (HiSeq 2×150 bp) and analyses performed using raw FastQ files provided by Azenta.

NFκB = test: NF-κB luminance reporter assay, TNFα activated; type: cell-based, Murine
Excerpt: NFκB expression was quantified from the luminance signals released from cells treated with the test products and the control (untreated).

Type I Collagen = Type I Collagen Assay (ELISA, fibroblast culture medium); type: cell-based, human; settings: for Type I Collagen C-Peptide: 48 hours, untreated 1255 ± 83
Description: (§1) In the study, human neonatal fibroblasts were seeded into the individual wells of a 48-well plate in 0.25 ml of Fibroblasts Growth Media (FGM) and incubated overnight at 37±2° C. and a 5±1% CO2 atmosphere. On the following day the media was removed via aspiration to eliminate non-adherent cells and replaced with 0.5 ml of fresh FGM. The cells were grown until confluent, with a media change every 48 to 72 hours. Upon reaching confluency the cells were treated for 24 hours with Dulbecco's Modified Eagle's medium (DMED) supplemented with 1.5% Fetal Bovine Serum (FBS) to wash out any effects from the growth factors included in the normal culture media. After this 24-hour wash out period the cells were treated with the test materials at the specified concentrations dissolved in FGM with 1.5% FBS. Sodium ascorbate (10 ug/ml) was used as a positive control. Untreated cells (negative controls) only received DMEM with […], The cells were incubated for 48 hours and at the end of the incubation period, cell culture medium was collected and either stored frozen (−75 C) or assayed immediately. Materials were tested in triplicate.
A series of type I collagen peptide standards was prepared ranging from 0 ng/ml to 640 ng/ml. An ELISA microplate was prepared by removing any unneeded strips from the plate frame followed by the addition of 100 μl of peroxidase labelled anti-procollagen type I-C peptide antibody to each well used in the assay. A 20 μl sample of each of the collected tissue culture media or a standard was then added to appropriate wells and the microplate covered and allowed to incubate for 3±0.25 hours at 37 C. Following incubation, the wells were aspirated and washed three times with 400 μl of wash buffer. After the last wash was remove 100 μl of peroxidase substrate solution (hydrogen peroxide+tetramethylbenzidine as a chromogen) was added to each well and the plate incubated for 15±4 minutes at room temperature. Following this incubation, 100 μl of stop solution (1 N sulfuric acid) was added to each well and the plate read using a microplate reader at 450 nm.
(§2) To quantify the amount of each substance present, a standard curve was generated using known concentrations of each substance. A regression analysis was performed to establish the line that best fit those data points. Absorbance values for the test materials and untreated samples were used to estimate the amount of each substance present in each sample. Treatment means were compared using ANOVA, with an […] per treatment. Statistical significance was set at p≤0.05.

Type IV Collagen = Type IV Collagen Assay (ELISA, fibroblast culture medium); type: cell-based, human; settings: for Type IV Collagen C-Peptide: 48 hours, untreated 7.76 ± 0.92
Description: as §1
A series of type IV collagen peptide standards was prepared ranging from 0 ng/ml to 640 ng/ml. 100 μl of each standard or of each of the collected tissue culture media were added to the wells of type IV collagen ELISA plates. The plates were then incubated at 37° C. for 1 hour. After incubation, the ELISA plates were then washed twice with wash buffer, followed by the addition of 100 μl of detection antibody solution. The ELISA plates were then incubated for 1 hour at 37° C. Following incubation, the ELISA plates were washed with wash solution followed by the addition of 100 μl HEP conjugate solution and incubated at 37° C. for 30 minutes. Following the latter incubation, the ELISA plates were again washed and 100 μl of the substrate solution was added to each well and the well plates incubated for 10-30 minutes at room temperature to allow the color generation reaction to occur. At the end of the color generation reaction 100 μl of stop solution (1 N sulfuric acid) was added to each well and the plates read at 460 nm using a plate reader.
as §2

Prolidase (PEPD) = test: Prolidase Assay (ELISA); type: cell-based; settings: for Prolidase: untreated 74 ± 3
Description: A series of standards was prepared and 50 μl aliquots of the standards and the test samples identified in Table 6 were added to wells of a prolidase ELISA plate, followed by the addition of 100 μl […] conjugated anti-prolidase antibody. The plate was then incubated at 37° C. for 1 hour, Following incubation, the ELISA plate was washed and 100 μl of substrate solution was added to each well and the well-plate incubated for 10-15 minutes at room temperature to allow the color generation reaction to occur. At the end of the color generation reaction, 50 μl of stop solution (1 N sulfuric acid) was added to each well and the plates read at 460 nm using a plate reader.
as §2

[2] = concentrations as high as 100 μg/ml

| Molecule | HDAC 10 activity, % of water-treated controls (HDAC10; 25 ug/ml) [%] | HDAC 10 activity, % of water-treated controls (HDAC10; 50 ug/ml) [%] | HDAC 10 activity, % of water-treated controls (HDAC10; 100 ug/ml) [%] | HDAC 10 activity, % of water-treated controls (HDAC10; 200 ug/ml) [%] | expression of FABP3 [1] | expression of late differentiation marker gene FLG [1] | expression of late differentiation marker gene IVL [1] | expression of late differentiation marker gene LOR [1] | expression of late differentiation marker gene SPINK5 [1] | expression of late differentiation marker gene TGM1 [1] | HDAC 10 activity, % of water-treated controls (HDAC10; 5 ug/ml) [%] | Type I Collagen C-Peptide (Type I Collagen; 10 μg/ml) [ng/mL] | Type I Collagen C-Peptide (Type I Collagen; 30 μg/ml) [ng/mL] | Type IV Collagen C-Peptide (Type IV Collagen; 10 μg/ml) [ng/mL] | Type IV Collagen C-Peptide (Type IV Collagen; 30 μg/ml) [ng/mL] | Prolidase (Prolidase (PEPD); 10 μg/ml) [ng/mL] | Prolidase (Prolidase (PEPD); 20 μg/ml) [ng/mL] | Prolidase (Prolidase (PEPD); 30 μg/ml) [ng/mL] | Prolidase (Prolidase (PEPD); 60 μg/ml) [ng/mL] | also measured |
| --- | --- | --- | --- | --- | --- | --- | --- | --- | --- | --- | --- | --- | --- | --- | --- | --- | --- | --- | --- | --- |
| CCCC(=O)NCCCCC(NC(=O)CCC)C(=O)[O-].CCCC(=O)NCCCCC(NC(=O)CCC)C(=O)[O-].[Ca+2] (stereo not drawn) [Ca di-(di-n-butyryl lysinate), calcium di-(di-n-butyryl lysinate)] | 105 | 103 | 104 | 90 | repressed | increased expression | increased expression | increased expression | increased expression | increased expression | – | – | – | – | – | – | – | – | – | activity of late cornified envelop (LCE2D) [1]: strongly increased; activity of late cornified envelope (LCE3A) [1]: strongly increased |
| Zinc Di-lysinate [Zn dilysinate] | 19 | 12 | 9 | 6 | – | – | – | – | – | – | – | – | – | – | – | – | – | – | – | – |
| CCCC(=O)NCCCC[C@H](NC(=O)CCC)C(=O)[O-].CCCC(=O)NCCCC[C@H](NC(=O)CCC)C(=O)[O-].[Zn+2] [Zn di-(di-n-butyryl lysinate), Zinc di-(di-n-butyryl lysinate)] | 15 | 13 | 9 | 7 | repressed | increased expression | increased expression | increased expression | increased expression | increased expression | 21 | 1328 ± 48 | 1958 ± 125 | 13.41 ± 1.40 | 26.98 ± 1.37 | 66 ± 4 | 104 ± 5 | 115 ± 8 | 145 ± 5 | IC50 in inhibiting NFκB (NFκB; C2C12 reporter cells, TNFα as activator): 70.4 µg/mL; fold more effective than Na butyrate in inhibiting NFκB (NFκB; ratio of IC50 values): about 110 fold; Type I Collagen C-Peptide (Type I Collagen; 20 μg/ml): 1541 ± 94 ng/mL; boost of Collagen I vs control (Type I Collagen; 30 μg/ml): ~50%; activity of S100 calcium binding protein P (S100P) [1]: strongly increased; activity of late cornified envelope 3D (LCE3D) [1]: strongly increased; activity of late cornified envelope 3E (LCE3E) [1]: strongly increased; activity of small protein reach repeat (SPRR28) [1]: strongly increased; expression of early differentiation marker gene DSC1 [1]: increasing the expression; expression of early differentiation marker gene KRT1 [1]: increasing the expression; expression of early differentiation marker gene KRT10 [1]: increasing the expression; boosting of Collagen IV versus control (Type IV Collagen; 20 μg/ml): ~250%; Type IV Collagen C-Peptide (Type IV Collagen; 20 μg/ml): 21.19 ± 1.47 ng/mL; boosting of Collagen IV versus control (Type IV Collagen; 30 μg/ml): ~320%; increase of prolidase vs control (Prolidase (PEPD); 60 μg/ml): 50% |
| CCCC(=O)[O-].[Na+] [Sodium butyrate, reference compound] | – | 100 | 103 | 93 | – | – | – | – | – | – | – | 1445 ± 168 | 1262 ± 95 | 9.29 ± 0.70 | 7.61 ± 0.70 | 54 ± 3 | 47 ± 6 | 37 ± 5 | 33 ± 5 | IC50 (NFκB; Mus musculus, C2C12 reporter cells, TNFα as activator, read-out: IC50 in inhibiting NFκB): 7700 µg/mL; HDAC 10 activity, % of water-treated controls (HDAC10; 400 ug/ml): 61%; Type I Collagen C-Peptide (Type I Collagen; 60 μg/ml): 1196 ± 175 ng/mL; Type I Collagen C-Peptide (Type I Collagen; 100 μg/ml): 1277 ± 216 ng/mL; Collagen I boosting activity (Type I Collagen; [2]): didn't show any; Type IV Collagen C-Peptide (Type IV Collagen; 60 μg/ml): 11.88 ± 1.37 ng/mL; Type IV Collagen C-Peptide (Type IV Collagen; 100 μg/ml): 12.80 ± 1.83 ng/mL; Collagen IV boosting activity (Type IV Collagen; [2]): didn't show any; decrease of prolidase vs control (Prolidase (PEPD); 60 μg/ml): 50% |
| CCCC(=O)N[C@@H](CC(C)C)C(=O)[O-].CCCC(=O)N[C@@H](CC(C)C)C(=O)[O-].[Zn+2] [Zn di-(n-butyryl leucinate), Zinc di-(n-butyryl leucinate)] | 13 | 10 | 8 | 6 | – | – | – | – | – | – | 21 | – | – | – | – | – | – | – | – | – |

— US20260041620A1, “NOVEL AMINO ACID BASED SALTS, COMPOSITIONS AND METHODS FOR TREATING SKIN AND IMPROVING SKIN REJUVENATION AND LONGEVITY” (Sytheon Ltd, priority 2023, published 2026)
